Experimental data as given in patent US8143307B2, “Benzothiophen-2-carbonylguanidine derivatives, preparation thereof, and pharmaceutical composition containing the same” (Korea Research Institute of Chemical Technology, priority 2004, dated 2012).

Tests used:
[1] = system: in vivo ischemic rat brain model; test: Cerebroprotective effect on in vivo ischemic rat brain model; conditions: for % Infarct size/hemisphere / TUNEL-Positive Cells (% Right/Left Hemisphere): 60 min ischemia, 24 hours reperfusion
Method: In order to examine whether the benzothiophen-2-carbonylguanidine derivatives of the present invention protect the brain from ischemia-reperfusion-induced cerebral injury, the following experiment was conducted.
Male Sparague-Dawley Rats (350±50 g, Samyook Experimental Animal Lab) were anesthetized and intraperitoneally injected with heparine. After ischemia by the occlusion of the right carotid artery for 60 min, reperfusion was performed for 24 hours. Compounds or a vehicle was intravenously injected at 20 min before the occlusion.
After the perfusion for 24 hours, rats were anesthetized with a fatal dose of sodium pentobarbital. The brains were carefully isolated and transected at intervals of 2 mm. The coronary slices thus obtained were stained at 37° C. for 20 min using a 2% 2,3,5-triphenyltetrazolium chloride solution. Stained slices were analyzed for % necrosis area relative to total brain area using an image analyzer (BAS image 1500). Also, the cerebroprotective activity of the compounds against brain edema was expressed as % volume of the left hemisphere relative to that of the ischemic right hemisphere.

[2] = system: isolated ischemic rat heart; test: Cardioprotective effect in isolated ischemic rat heart model (Langendorff); conditions: 10 μM, 30 min global ischemia, 30 min reperfusion
Method: Male rats (300 450 g, the Korea Research Institute of Chemical Technology, Experimental Animal Lab) were anesthetized by intraperitoneal injection with sodium pentobarbital at a dose of 100 mg/kg and were intravenously administered with heparine at a dose of 1000 U/kg, followed by the excision of the heart. In detail, a tracheotomy was performed and a tracheal cannula (PE 240) was inserted into the trachea for subsequent artificial ventilation with room air using a rodent ventilator. […] A catheter tip manometer connected to a latex balloon filled with a mixture of ethanol and distilled water (1:1 v/v) was inserted via an incision in the left atrium into the left ventricle, and the intraventricular pressure thereof transmitted to the latex balloon was measured isovolumetrically with a transducer and recorded on a recording system (Linearcorder mark 8 WR 3500) with the aid of an amplifier (Plugsys bridge amplifier). After stabilizing the heart for 15 min, the balloon volume was adjusted to create a left ventricular end-diastolic pressure (LVEDP) of 5 mmHg during the initial baseline period. The volume of the balloon was maintained until the end of the experiment. Baseline heart contraction function, spontaneous heart rate (HR) and coronary flow (CF) were determined from the left ventricular contraction interval. The left ventricular developed pressure (LVDP), which is regarded as an index of contractile function of the isolated heart, was calculated by subtracting left ventricular end-diastolic pressure (LVEDP) from left ventricular peak systolic pressure (LVSP). In contrast to the heart in the body, the Langendorff heart cannot be measured for cardiac output and thus, RPP (rate-pressure product), which is an important indirect indicator for cardiac performance, was calculated by multiplying heart rate (HR) by LVDP. Throughout the experiment, the temperature of the heart was maintained constant by […] in a 37° C. physiological solution to which 95% O2/5% CO2 was continuously supplied. The heart thus stabilized was perfursed for 10 min with a solution of the compounds of the invention or control drugs in DMSO (dimethylsulfoxide) diluted with HBS (final DMSO conc. 0.04%), or with the solvent only (a negative control; 0.04% DMSO) and then measured again for contractile function, heart rate (HR) and coronary flow (CF). The supply of perfusates was completely stopped for 30 min in order to induce global ischemia in the heart, followed by reperfusion for 30 min. The indices (LVDP, HR, LVEDP, and CF) were measured again. After the reperfusion, the total level of lactate dehydrogenase (LDH) in the reperfusates was measured using a kit and taken as an index of ischemic myocardial injury. A negative control group was treated with the solvent only while cariporide was used as a positive control.

[3] = system: in vivo ischemic rat heart model; test: Cardioprotective effect on in vivo ischemic rat heart model (coronary occlusion/reperfusion, infarct size); conditions: 45 min occlusion, 90 min reperfusion
Method: The cardioprotective effect of the benzothiophen-2-carbonylguanidine derivatives according to the present invention in in vivo ischemic hearts was judged with regard to their antischemic effects (myocardiac infarction reduction) on rats as follows.
Each male rat (300˜450 g, the Korea Research Institute of Chemical Technology, Experimental Animal Lab) was anesthetized by intraperitoneal injection with sodium pentobarbital at a dose of 75 mg/kg. Tracheotomy was performed and a tube was inserted into the trachea for subsequent artificial ventilation with a stroke volume of 10 ml/kg and a respiratory rate of 60 breaths/min. The femoral vein and the femoral artery were cannulated for the administration of the compounds and for the measurement of blood pressures, respectively. Meanwhile, the body temperature of the rats, an important factor to influence experimental results in the ischemic myocardiac injury model, was maintained constant at 37° C. using a homeothermic blanket control unit, with a body temperature-monitoring probe inserted into the rectum. Subsequently, rats were continuously measured for mean arterial blood pressure and heart rate HR throughout the experimental time period using a Statham P23XL pressure transducer (Grass Ins., Mass., USA) and an ECG/RATE Coupler (Hugo Sachs Electronic, Germany), respectively, with all continuous changes thereof recorded by Graphtec Linearcorder WR 3310 (Hugo Sachs Electronic).
The left coronary artery was occluded according to Selye H.'s method. In detail, after the chest of each rat was partially opened by left thoracotomy, the middle finger of the left hand was pressed against the right side of the chest of the rat to thrust out the heart which was then slightly fixed with the forefinger and the thumb of the same hand. Then, immediately after the left anterior descending coronary artery (LAD) was sutured with a 5-0 silk ligature, the heart was repositioned back in the thoracic cavity with both ends of the suture positioned outside. The ends of the suture were threaded through a PE tube (PE100, 2.5 cm) and allowed to stand for 20 min for stabilization. Through the cannula inserted into the femoral vein, a vehicle or the compounds of the invention were administered and 30 min was needed for sufficient effects of the administered compounds. Cariporide was used as a control. The ends of the suture threaded through the PE tube were pulled taut with hemostatic forceps to vertically press the PE tube against the coronary artery. After occlusion for 45 min, the hemostatic forceps were removed and reperfusion was conducted for 90 min.
The coronary artery was reoccluded in the same manner as described above, followed by the intravenous injection of 2 ml of 1% Evans blue. The intravenous injection of an excess of pentobarbital killed the rats, from which the hearts were then excised. The left ventricle was removed alone from the isolated heart and transected from the cardiac apex into 5 or 6 slices. Each slice was weighed. The image of each of the heart slices was captured using a Hi-scope, a compact vision system, and analyzed for blue-stained normal areas and non-stained areas with an image analyzing program (Image Pro Plus). In each slice, the area at risk (AAR) was calculated by multiplying the ratio of the non-stained area to the total area of the slice with the weight of the slice. Sum of the individual area at risk (AAR) for each slice was divided by the total weight of the left ventricle to obtain AAR (%) according to the following mathmatical formula 1.
Separately, the heat slices were incubated in 1%. 2,3,5-triphenyltetrazolium chloride (TTC) phosphate buffer (pH 7.4), 37° C., for 15 min and fixed in 10% formalin for 20˜24 hours. In the normal area of the tissue, 2,3,5-triphenyltetrazolium chloride was reduced by the myocardial dehydrogenase in the presence of the cofactor NADH to form formazan dye, which appeared as a brick-red color. […]

[4] = 0.1 mg/kg intravenous 20 min before occlusion
[5] = 0.3 mg/kg intravenous 20 min before occlusion

## CS(=O)(=O)O.N#Cc1cccc2sc(C(=O)N=C(N)N)cc12 [Example 42, (4-Cyanobenzothiophene-2-Carbonyl)Guanidine Methanesulfonate]
[1]; [4]
  % Infarct size/hemisphere: 21.4%
  TUNEL-Positive Cells (% Right/Left Hemisphere): 111.2%
[1]; [5]
  % Infarct size/hemisphere: 18.6%
  TUNEL-Positive Cells (% Right/Left Hemisphere): 107.96%
[1]; injection doses of both 0.1 mg/kg and 0.3 mg/kg
  ischemia/reperfusion-induced brain infarction and brain edema: significantly reduced
[2]
  LDH (free LDH level upon reperfusion): 14.7 u/g
  LVEDP (left ventricular end-diastolic pressure): 6.0 mmHg
[3]; 0.1 mg/kg intravenous
  Myocardiac infarction rate (IS/AAR, %): 36.9%
[3]; 0.3 mg/kg intravenous
  Myocardiac infarction rate (IS/AAR, %): 34.4%
